Patent US20130065757A1, “CHEMICAL COMPOUNDS” (Syngenta Limited, priority 2010, published 2013)

Key:
[1] = tested on: Maize cv GARLAND; assay: Safening on corn, general crop injury; format: in vivo; settings: 200 g ai/ha (with safener 200 + 200), sprayed at 3-leaf stage, 100% total damage, 0% no damage
Description: (§1) Maize seeds were sown into standard soil in pots and cultivated under controlled conditions in a glasshouse (at 24/18° C. day/night; 16 hours light; 65% humidity).
(§2) When the plants were at the vegetative stage of 3 leaves they were sprayed with an aqueous spray solution containing the components of the invention alone and where appropriate the herbicide safener (N-(2-methoxybenzoyl)-4-[(methylaminocarbonyl)amino]benzenesulfonamide). All the compounds used for the spray solution were present as an EC or SC formulation respectively. In addition a non-ionic surfactant (X-77 Spreader) was added to form a 0.2% v/v solution.
(§3) The spray solution was applied with a cabinet tracksprayer with a flat fan nozzle (Teejet 11002VS) and an application volume of 200 L/ha (at 2 bar).
(§4) The test plants were then grown on in a glasshouse under controlled conditions (at 24/18° C. day/night; 16 hours light; 65% humidity) and watered twice a day. After 7 and 17 days the test was evaluated for general crop injury (100% equals total damage to plant; 0% equals no damage to plant).

[2] = tested on: Maize cv CLAXXON; assay: Safening on corn, general crop injury; format: in vivo; settings: 200 g ai/ha (with safener 200 + 200), sprayed at 3-leaf stage, 100% total damage, 0% no damage
Description: as §1, §2, §3, §4

[3] = tested on: Amaranthus retroflexus (AMARE); assay: Post-emergence biological efficacy, glasshouse pot test; format: in vivo; settings: 312 h, 1,000 g/ha, post-emergence (sprayed after 8 days), evaluated after 13 days, 100=total damage, 0=no damage, read-out: Percentage damage caused to weed species, post-emergence, AMARE
Description: (§5) Seeds of Alopecurus myosuroides (ALOMY), Setaria faberi (SETFA), Echinochloa crus-galli (ECHCG), Solanum nigrum (SOLNI), Amaranthus retroflexus (AMARE) and Ipomoea hederaceae (IPOHE) were sown in standard soil in pots. After cultivation for 8 days under controlled conditions in a glasshouse (at 24/16° C., day/night; 14 hours light; 65% humidity), the plants were sprayed with an aqueous spray solution derived from the formulation of the technical active ingredient in acetone/water (50:50) solution containing 0.5% Tween 20 (polyoxyethylene sorbitan monolaurate, CAS RN 9005-64-5) to give a final dose of 1000 g/ha of test compound.
(§6) The test plants were then grown on under controlled conditions in a glasshouse (at 24/16° C., day/night; 14 hours light; 65% humidity) and watered twice daily. After 13 days the test was evaluated (100=total damage to plant; 0=no damage to plant).

[4] = tested on: Echinochloa crus-galli (ECHCG); assay: as above; format: in vivo; settings: 312 h, 1,000 g/ha, post-emergence (sprayed after 8 days), evaluated after 13 days, 100=total damage, 0=no damage, read-out: Percentage damage caused to weed species, post-emergence, ECHCG
Description: as §5, §6

[5] = tested on: Setaria faberi (SETFA); assay: as above; format: in vivo; settings: 312 h, 1,000 g/ha, post-emergence (sprayed after 8 days), evaluated after 13 days, 100=total damage, 0=no damage, read-out: Percentage damage caused to weed species, post-emergence, SETFA
Description: as §5, §6

[6] = tested on: Alopecurus myosuroides (ALOMY); assay: as above; format: in vivo; settings: 312 h, 1,000 g/ha, post-emergence (sprayed after 8 days), evaluated after 13 days, 100=total damage, 0=no damage, read-out: Percentage damage caused to weed species, post-emergence, ALOMY
Description: as §5, §6

[7] = tested on: Ipomoea hederaceae (IPOHE); assay: as above; format: in vivo; settings: 312 h, 1,000 g/ha, post-emergence (sprayed after 8 days), evaluated after 13 days, 100=total damage, 0=no damage, read-out: Percentage damage caused to weed species, post-emergence, IPOHE
Description: as §5, §6

[8] = tested on: Solanum nigrum (SOLNI); assay: as above; format: in vivo; settings: 312 h, 1,000 g/ha, post-emergence (sprayed after 8 days), evaluated after 13 days, 100=total damage, 0=no damage, read-out: Percentage damage caused to weed species, post-emergence, SOLNI
Description: as §5, §6

[9] = tested on: Amaranthus retroflexus (AMARE); assay: Pre-emergence biological efficacy, glasshouse pot test; format: in vivo; settings: 312 h, 1,000 g/ha, evaluated after 13 days, 100=total damage, 0=no damage, read-out: Percentage damage caused to weed species, pre-emergence, AMARE
Description: as §5, with “one day” for “8 days”
(§7) The test plants were then grown under controlled conditions in the glasshouse (at 24/16° C., day/night; 14 hours light; 65% humidity) and watered twice daily. After 13 days the test was evaluated (100=total damage to plant; 0=no damage to plant).

[10] = tested on: Echinochloa crus-galli (ECHCG); assay: as above; format: in vivo; settings: 312 h, 1,000 g/ha, evaluated after 13 days, 100=total damage, 0=no damage, read-out: Percentage damage caused to weed species, pre-emergence, ECHCG
Description: as §5, with “one day” for “8 days”
as §7

[11] = tested on: Setaria faberi (SETFA); assay: as above; format: in vivo; settings: 312 h, 1,000 g/ha, evaluated after 13 days, 100=total damage, 0=no damage, read-out: Percentage damage caused to weed species, pre-emergence, SETFA
Description: as §5, with “one day” for “8 days”
as §7

[12] = tested on: Alopecurus myosuroides (ALOMY); assay: as above; format: in vivo; settings: 312 h, 1,000 g/ha, evaluated after 13 days, 100=total damage, 0=no damage, read-out: Percentage damage caused to weed species, pre-emergence, ALOMY
Description: as §5, with “one day” for “8 days”
as §7

[13] = tested on: Ipomoea hederaceae (IPOHE); assay: as above; format: in vivo; settings: 312 h, 1,000 g/ha, evaluated after 13 days, 100=total damage, 0=no damage, read-out: Percentage damage caused to weed species, pre-emergence, IPOHE
Description: as §5, with “one day” for “8 days”
as §7

[14] = tested on: Solanum nigrum (SOLNI); assay: as above; format: in vivo; settings: 312 h, 1,000 g/ha, evaluated after 13 days, 100=total damage, 0=no damage, read-out: Percentage damage caused to weed species, pre-emergence, SOLNI
Description: as §5, with “one day” for “8 days”
as §7

melting point | Structure (SMILES) | Percentage damage caused to corn, Maize cv GARLAND, 7 days after application [1] [%] | Percentage damage caused to corn, Maize cv GARLAND, 17 days after application [1] [%] | Percentage damage caused to corn, Maize cv CLAXXON, 7 days after application [2] [%] | Percentage damage caused to corn, Maize cv CLAXXON, 17 days after application [2] [%] | pest or weed control at 1000 g/ha [3] [%] | pest or weed control at 1000 g/ha [4] [%] | pest or weed control at 1000 g/ha [5] [%] | pest or weed control at 1000 g/ha [6] [%] | pest or weed control at 1000 g/ha [7] [%] | pest or weed control at 1000 g/ha [8] [%] | pest or weed control at 1000 g/ha [9] [%] | pest or weed control at 1000 g/ha [10] [%] | pest or weed control at 1000 g/ha [11] [%] | pest or weed control at 1000 g/ha [12] [%] | pest or weed control at 1000 g/ha [13] [%] | pest or weed control at 1000 g/ha [14] [%]
141 to 146 °C (dec.) | C=Cc1c(N)cc(Cl)nc1C(=O)O [Compound 1-4, 4-amino-6-chloro-3-ethenyl-pyridine-2-carboxylic acid] | 60 | 65 | 60 | 50 | 100 | 80 | 100 | 80 | 70 | 100 | 100 | 90 | 100 | 90 | 100 | 100
 | C=Cc1c(C(=O)O)nc(Cl)c(F)c1N [Compound 1-12, 4-Amino-6-chloro-3-ethenyl-5-fluoro-pyridine-2-carboxylic acid] | 60 | 50 | 60 | 50 | 100 | 90 | 90 | 90 | 100 | 90 | 100 | 90 | 100 | 90 | 100 | 100
 | C=Cc1c(NCC(C)O)cc(Cl)nc1C(=O)OC (stereo not drawn) [Compound 21-4, 6-Chloro-3-ethenyl-4-(2-hydroxypropylamino)-pyridine-2-carboxylic acid methyl ester] |  |  |  |  | 100 | 80 | 80 | 70 | 50 | 100 | 100 | 90 | 90 | 90 | 80 | 100
 | C=Cc1c(NC2CC2)cc(Cl)nc1C(=O)OC [Compound 23-4, 6-Chloro-4-cyclopropylamino-3-ethenyl-pyridine-2-carboxylic acid methyl ester] |  |  |  |  | 100 | 30 | 80 | 60 | 70 | 100 | 100 | 70 | 80 | 70 | 80 | 100
 | C=Cc1c(NC2CCCC2)cc(Cl)nc1C(=O)OC [Compound 27-4, 6-Chloro-4-cyclopentylamino-3-ethenyl-pyridine-2-carboxylic acid methyl ester] |  |  |  |  | 100 | 10 | 70 | 10 | 60 | 80 | 100 | 10 | 70 | 50 | 50 | 100
 | C=Cc1c(N2CCCC2)cc(Cl)nc1C(=O)OC [Compound 31-4, 6-Chloro-3-ethenyl-4-pyrrolidin-1-yl-pyridine-2-carboxylic acid methyl ester] |  |  |  |  | 90 | 20 | 50 | 20 | 70 | 90 | 100 | 10 | 50 | 60 | 80 | 90
